Results reported in ChEMBL document CHEMBL5108067, “Discovery of Potent OTUB1/USP8 Dual Inhibitors Targeting Proteostasis in Non-Small-Cell Lung Cancer” (J Med Chem, 2022).
The source made the active and inactive calls. No cut-off for these calls is given here.

Columns and labels:
[1] = biological target: T1, Ubiquitin carboxyl-terminal hydrolase 8 (Homo sapiens) (UniProt P40818); experiment: Destabilization of N-terminal His-6 tagged USP8 (734 to 1110 residues) (unknown origin) expressed in Escherichia coli BL21 (DE3) cells assessed as change in melting temperature at 200 uM measured for 2 hrs in presence of dithiothreitol by SYPRO orange dye based thermal shift assay
T1 sequence (whole entry): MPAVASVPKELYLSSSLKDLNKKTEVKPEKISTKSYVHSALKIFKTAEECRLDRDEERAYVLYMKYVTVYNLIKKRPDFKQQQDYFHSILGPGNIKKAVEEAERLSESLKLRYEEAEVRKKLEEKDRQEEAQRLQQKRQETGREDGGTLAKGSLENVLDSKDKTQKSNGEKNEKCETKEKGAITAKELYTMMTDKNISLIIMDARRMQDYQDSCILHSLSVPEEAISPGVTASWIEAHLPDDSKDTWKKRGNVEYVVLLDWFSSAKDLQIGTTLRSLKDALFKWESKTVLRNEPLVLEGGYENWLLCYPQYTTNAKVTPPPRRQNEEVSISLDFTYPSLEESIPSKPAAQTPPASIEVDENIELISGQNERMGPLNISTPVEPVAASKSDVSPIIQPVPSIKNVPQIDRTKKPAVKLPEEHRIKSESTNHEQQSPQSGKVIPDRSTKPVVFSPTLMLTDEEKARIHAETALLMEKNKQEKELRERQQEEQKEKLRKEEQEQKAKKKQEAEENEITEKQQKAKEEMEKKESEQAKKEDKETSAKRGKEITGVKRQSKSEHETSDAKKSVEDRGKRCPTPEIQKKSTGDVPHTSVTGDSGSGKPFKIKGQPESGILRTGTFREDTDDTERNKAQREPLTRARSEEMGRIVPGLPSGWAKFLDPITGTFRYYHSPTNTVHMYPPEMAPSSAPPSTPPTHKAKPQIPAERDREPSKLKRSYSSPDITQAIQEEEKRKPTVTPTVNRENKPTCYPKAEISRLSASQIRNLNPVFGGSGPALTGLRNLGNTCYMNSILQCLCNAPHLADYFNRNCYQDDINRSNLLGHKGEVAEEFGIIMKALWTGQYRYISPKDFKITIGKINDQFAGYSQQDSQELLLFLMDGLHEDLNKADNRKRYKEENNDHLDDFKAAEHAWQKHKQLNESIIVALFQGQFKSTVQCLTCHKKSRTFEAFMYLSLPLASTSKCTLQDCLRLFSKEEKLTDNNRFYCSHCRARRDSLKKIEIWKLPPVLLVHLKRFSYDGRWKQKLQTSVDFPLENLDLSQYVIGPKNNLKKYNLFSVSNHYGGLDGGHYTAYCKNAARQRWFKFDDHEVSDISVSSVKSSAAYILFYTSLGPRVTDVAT

[2] = system: NCI-H1975; experiment: Antitumor activity against human NCI-H1975 cells xenografted in BALB/c nude mouse model assessed as reduction of total tumor weight at 5 mg/kg, ip bid for 2 weeks; assay type: functional, organism-based
[3] = system: Mus musculus; experiment: In vivo inhibition of OTUB1 in human NCI-H1975 cells xenografted BALB/c nude mouse model assessed as decrease in OTUB1 level at 15 mg/kg/day, po measured after 5 days by Western blot analysis; assay type: functional, organism-based; conditions: time 5.0 day

- ΔTm [1]: 2 °C
SMILES: CN1CC[C@@H](Oc2ccc(F)c(-c3nc4c(o3)C(=O)c3ccccc3C4=O)c2Cl)C1
- Activity [2]: Active
- Activity [3]: Active
